Assay results taken from patent EP3319959B1, “HETERO-HALO INHIBITORS OF HISTONE DEACETYLASE” (Alkermes, Inc., priority 2015, dated 2017).
pEC50, pIC50: −log10 of the molar value.

tested on: recombinant human HDACs; assay: HDAC enzymatic assay (LabChip capillary electrophoresis); type: biochemical; details: 5 nM HDAC enzyme, 1 uM substrate, 5 hours pre-incubation, 17 hours reaction at 25°C; isoform not given
Method: All recombinant human HDACs were purchased from BPS Bioscience. The substrate, FAM-TSRHK(AC)KL-CONH, was synthesized at NanoSyn. Final assay reactions contained 100 mM HEPES (pH 7.5), 50 mM KCl, 0.1% BSA, 0.01% Triton X-100, 1% DMSO, 1 uM substrate and 5 nM HDAC enzyme. Enzyme and compounds were pre-incubated at 25°C for 5 hours and reactions were initiated by addition of substrate. 10 uL reactions were incubated for 17 hours at 25°C and terminated by the addition of 40 uL of buffer containing 100 mM HEPES (pH 7.5), 0.1% BSA, 0.01% Triton X-100 and 0.05% SDS. Substrate and product peptides present in each sample were separated electrophoretically using the LabChip 3000 capillary electrophoresis instrument. Change in the relative fluorescence intensity of the substrate and product peaks reflects enzyme activity. Reaction progress was determined as the product to sum ratio (PSR): P/(S+P), where P is the peak height of the product peptide and S is the peak height of the substrate peptide. Reactions were performed in duplicate at 12 concentrations, (3X serial dilutions starting at 30 uM). IC50 values were calculated using a 4 Parameter Logistic Model.

pIC50	SMILES
< 5.30	Nc1ccc(-c2ccc(F)cc2)nc1NC(=O)N1C[C@@H]2[C@@H](CN3CCC3)[C@@H]2C1 [Compound 270]
6.30 to 7.00	Nc1ccc(-c2cccs2)nc1NC(=O)N1Cc2nccnc2C1 [Compound 156]
6.30 to 7.00	Cn1cc2c(n1)CN(C(=O)Nc1nc(-c3ccc(F)cc3)ccc1N)C2 [Compound 257]
< 5.30	CN1CC(CN2C[C@@H]3[C@H](C2)[C@H]3C(=O)Nc2nc(-c3ccc(F)cc3)ccc2N)C1 [Compound 268]
6.30 to 7.00	CN1CCN(Cc2ccc3c(c2)CN(C(=O)Nc2nc(-c4ccc(F)cc4)ccc2N)C3)CC1 [Compound 367]
6.30 to 7.00	Nc1ccc(-c2ccc(F)cc2)nc1NC(=O)N1Cc2ccncc2C1 [Compound 373]
6.30 to 7.00	CN(C)Cc1cnc2c(c1)CN(C(=O)Nc1nc(-c3cccnc3)ccc1N)C2 [Compound 161]
6.30 to 7.00	CN(C)Cc1ccc2c(c1)CN(C(=O)Nc1nc(-c3ccc(F)cc3)ccc1N)C2 [Compound 371]
< 5.30	Cn1cc(CN2CCC3(CC2)CCN(C(=O)Nc2nc(-c4cccnc4)ccc2N)C3)cn1 [Compound 215]
< 5.30	Nc1ccc(-n2cccn2)nc1NC(=O)N1CC2CC(N3CC(F)C3)CC2C1 (stereo not drawn) [Compound 190]
5.30 to 6.30	Nc1ccc(-c2ccc(OC(F)F)cc2)nc1NC(=O)N1Cc2nccnc2C1 [Compound 228]
< 5.30	Nc1ccc(-c2ccco2)nc1NC(=O)C1CN(Cc2ccccc2)C1 [Compound 198]
< 5.30	CN(C1CCOC1)C1CC2CN(C(=O)Nc3nc(-c4ccc(F)cc4)ccc3N)CC2C1 (stereo not drawn) [Compound 237]
6.30 to 7.00	Nc1ccc(-c2ccc(F)cc2)nc1NC(=O)N1Cc2cnc(C3CCOCC3)cc2C1 [Compound 240]
6.30 to 7.00	CN1CCN(c2cc3c(cn2)CN(C(=O)Nc2nc(-c4ccc(F)cc4)ccc2N)C3)CC1 [Compound 160]
< 5.30	Nc1ccc(-c2ccccc2)nc1NC(=O)CN1CCn2cncc2C1 [Compound 194]
< 5.30	Nc1ccc(-c2ccco2)nc1NC(=O)N1CC2CN(C3COC3)CC2C1 (stereo not drawn) [Compound 182]
< 5.30	CN1CCN(C(=O)Nc2nn(-c3ccccc3)cc2N)CC1 [Compound 361]
< 5.30	Nc1ccc(-c2ccccc2)nc1NC(=O)C1CCN(C2COC2)CC1 [Compound 381]
< 5.30	Nc1ccc(-c2ccc(F)cc2)nc1NC(=O)N1CC2CN(C3CCOCC3)CC2C1 (stereo not drawn) [Compound 236]
< 5.30	Nc1cn(-c2ccccc2)nc1NC(=O)N1CC2COCC2C1 (stereo not drawn) [Compound 382]
5.30 to 6.30	Nc1ccc(-c2ccc(F)cc2)nc1NC(=O)N1CCN(C(=O)[C@@H]2C[C@H]2c2ccccc2)CC1 (stereo in doubt) [Compound 225]

pIC50	SMILES
5.30 to 6.30	CN1CCN(Cc2ccc3c(c2)CN(C(=O)Nc2nn(-c4ccccc4)cc2N)C3)CC1 [Compound 353]
5.30 to 6.30	Nc1cn(-c2ccc(F)cc2)nc1NC(=O)N1CCN(C(=O)[C@@H]2C[C@H]2c2ccccc2)CC1 [Compound 125]
< 5.30	Cc1cc(F)ccc1-c1ccc(N)c(NC(=O)N2Cc3cnc(CN(C)C)cc3C2)n1 [Compound 261]
5.30 to 6.30	Nc1ccc(-n2cccn2)nc1NC(=O)N1Cc2ccncc2C1 [Compound 369]
5.30 to 6.30	CN1CC(Cn2ncc3c2CN(C(=O)Nc2nc(-c4ccc(F)cc4)ccc2N)C3)C1 [Compound 244]
< 5.30	Nc1ccc(-c2ccco2)nc1NC(=O)N1CC2CC(N3CC(F)C3)CC2C1 (stereo not drawn) [Compound 189]
< 5.30	COCC1CCN(C(=O)Nc2nc(-c3ccc(F)cc3)ccc2N)C1 (stereo not drawn) [Compound 389]
5.30 to 6.30	COC1CCN(C(=O)Nc2nc(-c3ccc(F)cc3)ccc2N)C1 (stereo not drawn) [Compound 388]
5.30 to 6.30	CN1CCC(c2ccc3c(c2)CN(C(=O)Nc2nc(-c4ccc(F)cc4)ccc2N)C3)CC1 [Compound 387]
5.30 to 6.30	Nc1ccc(-c2ccc(F)cc2)nc1NC(=O)N1CC2CCCC2C1 (stereo not drawn) [Compound 385]
6.30 to 7.00	Nc1ccc(-c2ccc(F)cc2)nc1NC(=O)N1Cc2cnc(N3CCOCC3)cc2C1 [Compound 150]
5.30 to 6.30	Nc1ccc(-c2ccc(F)cc2)nc1NC(=O)N1CCC(F)(F)C1 [Compound 364]
6.30 to 7.00	Nc1ccc(-c2ccc(F)cc2)nc1NC(=O)c1nc2c(s1)CCN(CCF)C2 [Compound 165]
6.30 to 7.00	CN(C)Cc1ccc2c(c1)CN(C(=O)Nc1nc(-c3ccco3)ccc1N)C2 [Compound 365]
< 5.30	CN1CC(N2C[C@@H]3[C@H](C2)[C@H]3C(=O)Nc2nc(-c3ccc(F)cc3)ccc2N)C1 (stereo in doubt) [Compound 241]
< 5.30	Nc1ccc(-c2ccccc2)nc1NC(=O)N1CC2CN(C3COC3)CC2C1 (stereo not drawn) [Compound 199]
5.30 to 6.30	CN1CCN(c2ccc3c(c2)CN(C(=O)Nc2nn(-c4ccccc4)cc2N)C3)CC1 [Compound 352]
< 5.30	CN1CCC2(CC1)CCN(C(=O)Nc1nc(-c3cccnc3)ccc1N)C2 [Compound 210]
5.30 to 6.30	Nc1ccc(-c2ccc(F)cc2)nc1NC(=O)N1CC2CC(N3CCC3)CC2C1 (stereo not drawn) [Compound 143]
5.30 to 6.30	Nc1ccc(-c2ccc(F)cc2)nc1NC(=O)N1Cc2cc(F)cnc2C1 [Compound 186]
5.30 to 6.30	CN1CC(N2CC3CN(C(=O)Nc4nc(-c5ccc(F)cc5)ccc4N)CC3C2)C1 (stereo not drawn) [Compound 152]
6.30 to 7.00	Nc1ccc(-c2ccc(F)cc2)nc1NC(=O)N1Cc2ccc(CN3CCC(F)(F)C3)cc2C1 [Compound 386]

pIC50	SMILES
< 5.30	Nc1ccc(-c2ccc(F)cc2)nc1NC(=O)N1CC2CC(N3CCOCC3)CC2C1 (stereo not drawn) [Compound 181]
6.30 to 7.00	Cc1cnc(C(=O)Nc2nc(-c3ccc(F)cc3)ccc2N)s1 [Compound 226]
< 5.30	CN1CC(n2ncc3c2CN(C(=O)Nc2nc(-c4ccc(F)cc4)ccc2N)C3)C1 [Compound 246]
5.30 to 6.30	Nc1ccc(-c2ccccc2)nc1NC(=O)N1CC2CC(NC3COC3)CC2C1 (stereo not drawn) [Compound 191]
< 5.30	Nc1ccc(-c2ccc(F)cc2)nc1NC(=O)[C@H]1[C@@H]2CN(C3COC3)C[C@@H]21 (stereo in doubt) [Compound 239]
< 5.30	COc1cccc(CN2CCCC3(CCN(C(=O)Nc4nc(-c5ccc(F)cc5)ccc4N)C3)C2)c1 (stereo not drawn) [Compound 222]
5.30 to 6.30	CN1CCC(N2CCC(C(=O)Nc3nc(-c4ccc(F)cc4)ccc3N)CC2)CC1 [Compound 368]
6.30 to 7.00	COC1CCN(Cc2ccc3c(c2)CN(C(=O)Nc2nc(-c4ccc(F)cc4)ccc2N)C3)C1 (stereo not drawn) [Compound 363]
5.30 to 6.30	Nc1cn(-c2ccccc2)nc1NC(=O)N1Cc2ccc(CO)cc2C1 [Compound 350]
< 5.30	CN1CC(CC(=O)Nc2nc(-c3ccc(F)cc3)ccc2N)C1 [Compound 376]
< 5.30	Nc1ccc(-c2ccc(F)cc2)nc1NC(=O)N1CC2CN(C3COC3)CC2C1 (stereo not drawn) [Compound 203]
6.30 to 7.00	Nc1ccc(-c2cccs2)nc1NC(=O)N1Cc2ccc(CN3CCCC3)cc2C1 [Compound 410]
< 5.30	Nc1ccc(-c2ccccc2)nc1NC(=O)N1CCn2cncc2C1 [Compound 212]
6.30 to 7.00	Cc1cc2c(cn1)CN(C(=O)Nc1nc(-c3ccc(F)cc3)ccc1N)C2 [Compound 151]
< 5.30	Nc1ccc(-c2cccnc2)nc1NC(=O)N1CC2(CCNCC2)C1 [Compound 220]
< 5.30	Nc1ccc(-n2cccn2)nc1NC(=O)C1CN(Cc2ccccc2)C1 [Compound 205]
< 5.30	Nc1ccc(-c2cccnc2)nc1NC(=O)c1cn2c(n1)CNCC2 [Compound 219]
5.30 to 6.30	CN1CCN(C2CC3CN(C(=O)Nc4nc(-c5ccc(F)cc5)ccc4N)CC3C2)CC1 (stereo not drawn) [Compound 179]
< 5.30	CC(=O)N1CCN(CC(=O)Nc2nc(-c3ccccc3)ccc2N)CC1 [Compound 196]
< 5.30	CN(C1COC1)[C@H]1[C@@H]2CN(C(=O)Nc3nc(-c4ccc(F)cc4)ccc3N)C[C@@H]21 [Compound 262]

SMILES	pIC50
CN1CC=C(c2cc3c(cn2)CN(C(=O)Nc2nc(-c4ccc(F)cc4)ccc2N)C3)CC1 [Compound 148]	6.30 to 7.00
COCc1cc2c(cn1)CN(C(=O)Nc1nc(-c3ccc(F)cc3)ccc1N)C2 [Compound 243]	6.30 to 7.00
CN1CC2CN(C(=O)Nc3nc(-n4cccn4)ccc3N)CC2C1 (stereo not drawn) [Compound 184]	< 5.30
CN1CC=C(c2ccc3c(c2)CN(C(=O)Nc2nc(-c4ccc(F)cc4)ccc2N)C3)CC1 [Compound 362]	6.30 to 7.00

tested on: SH-SY5Y cells; assay: Cell assay in SH-SY5Y cells with HDAC-Glo 2 reagent; type: cell-based; details: Homo sapiens, 5 h, five hours at 37°C, CI-994 at 100 uM defined as 100% inhibition
Method: SH-SY5Y cells (Sigma) were cultured in Eagle's Modified Essential Medium supplemented with 10% fetal bovine serum and pen/strep. Twenty-four hours prior to compound dosing 20 uL of cells were plated in white 384 well plates at a density of 1,500 cells/well. Compounds were serially diluted in neat DMSO and then diluted 1:100 v/v into media without FBS and mixed. Media was removed from the plated cells and the diluted compounds in serum free media (1% v/v final DMSO) were added and incubated at 37°C for five hours. Ten uL of HDAC-Glo 2 reagent with 0.1% Triton X-100 was then added, the plate was mixed and allowed to develop at room temperature for 100 minutes. Plates were then read with a Spectramax LMax luminometer employing a 0.4s integration time. Dose response curves were constructed with normalized data where CI-994 at 100 uM was defined as 100% inhibition and DMSO alone as 0% inhibition. Table 5. IC50 and EC50 Values for Exemplary Compounds Useful in the Invention

pEC50	SMILES
< 5.30	Nc1ccc(-c2ccc(F)cc2)nc1NC(=O)N1C[C@@H]2[C@@H](CN3CCC3)[C@@H]2C1 [Compound 270]
6.30 to 7.00	Nc1ccc(-c2cccs2)nc1NC(=O)N1Cc2nccnc2C1 [Compound 156]
6.30 to 7.00	Cn1cc2c(n1)CN(C(=O)Nc1nc(-c3ccc(F)cc3)ccc1N)C2 [Compound 257]
< 5.30	CN1CC(CN2C[C@@H]3[C@H](C2)[C@H]3C(=O)Nc2nc(-c3ccc(F)cc3)ccc2N)C1 [Compound 268]
5.30 to 6.30	CN1CCN(Cc2ccc3c(c2)CN(C(=O)Nc2nc(-c4ccc(F)cc4)ccc2N)C3)CC1 [Compound 367]
5.30 to 6.30	Nc1ccc(-c2ccc(F)cc2)nc1NC(=O)N1Cc2ccncc2C1 [Compound 373]
6.30 to 7.00	CN(C)Cc1cnc2c(c1)CN(C(=O)Nc1nc(-c3cccnc3)ccc1N)C2 [Compound 161]
5.30 to 6.30	CN(C)Cc1ccc2c(c1)CN(C(=O)Nc1nc(-c3ccc(F)cc3)ccc1N)C2 [Compound 371]

SMILES	pEC50
CN1CC=C(c2cc3c(cn2)CN(C(=O)Nc2nc(-c4ccc(F)cc4)ccc2N)C3)CC1 [Compound 148]	5.30 to 6.30
COCc1cc2c(cn1)CN(C(=O)Nc1nc(-c3ccc(F)cc3)ccc1N)C2 [Compound 243]	5.30 to 6.30
